In patent publication US20220289794A1, “SYNTHETIC ANTIMICROBIAL PEPTIDES” (priority 2019, published 2022):
Values after ≈ are worked out from the molar mass of the structure shown. Non-standard residues stand in square brackets, D forms with d. Residues, ends and D or L forms follow the SMILES beside them. Dip = N[C@H](C(=O)O)C(c1ccccc1)c1ccccc1; 2Nal = N[C@@H](Cc1ccc2ccccc2c1)C(=O)O; d2Nal = N[C@H](Cc1ccc2ccccc2c1)C(=O)O; Dab = NCC[C@H](N)C(=O)O

Tests used:
[1] = tested on: Methicillin-resistant Staphylococcus aureus MRSA (ATCC BAA-1556); settings: ATCC BAA-1556
[2] = tested on: Pseudomonas aeruginosa (ATCC 27883); settings: ATCC 27883
S. aureus ATCC 29213 = settings: ATCC 29213
human red blood cells = tested on: human red blood cells; set-up: unit not given beside the values
[3] = tested on: Escherichia coli (ATCC 25922); settings: ATCC 25922

Row | Compound | MIC MRSA ATCC BAA-1556 [1] [µg/mL] | MIC P. aeruginosa ATCC 27883 [2] [µg/mL] | MIC S. aureus ATCC 29213 (S. aureus ATCC 29213) [µg/mL] | HC50 (human red blood cells) | MIC E. coli ATCC 25922 [3] [µg/mL]
1 | N=C(N)NCCC[C@H](NC(=O)[C@H](CCCNC(=N)N)NC(=O)[C@@H](N)CCCNC(=N)N)C(=O)N[C@@H](Cc1c[nH]c2ccccc12)C(=O)N[C@H](C(=O)N[C@H](C(=O)O)C(c1ccccc1)c1ccccc1)C(c1ccccc1)c1ccccc1 [IFX-020-1, NH2-R-R-R-Trp-Dip-Dip-OH] (H-RRRW[Dip][Dip]-OH) | 6.2 (≈ 5.54 µM) | 25 (≈ 22.3 µM) | 6.2 (≈ 5.54 µM) | 310 | 6.2 (≈ 5.54 µM)
2 | N=C(N)NCCC[C@H](NC(=O)[C@H](CCCNC(=N)N)NC(=O)[C@@H](N)CCCNC(=N)N)C(=O)N[C@@H](Cc1ccc2ccccc2c1)C(=O)N[C@@H](Cc1c[nH]c2ccccc12)C(=O)N[C@@H](Cc1ccc2ccccc2c1)C(=O)O [IFX-024-1, NH2-R-R-R-NaI-Trp-NaI-OH] (H-RRR[2Nal]W[2Nal]-OH) | 6.2 (≈ 5.81 µM) | 25 (≈ 23.4 µM) | 6.2 (≈ 5.81 µM) | 410 | 12.5 (≈ 11.7 µM)
3 | N=C(N)NCCC[C@H](NC(=O)[C@H](CCCNC(=N)N)NC(=O)[C@@H](N)CCCNC(=N)N)C(=O)N[C@@H](CCCNC(=N)N)C(=O)N[C@H](C(=O)N[C@H](C(=O)N[C@H](C(=O)O)C(c1ccccc1)c1ccccc1)C(c1ccccc1)c1ccccc1)C(c1ccccc1)c1ccccc1 [IFX-008-1, NH2-Arg-Arg-Arg-Arg-Dip-Dip-Dip-OH] (H-RRRR[Dip][Dip][Dip]-OH) | 3.1 (≈ 2.36 µM) | 6.2 (≈ 4.72 µM) | 3.1 (≈ 2.36 µM) | 210 | 6.2 (≈ 4.72 µM)
4 | N=C(N)NCCC[C@H](NC(=O)[C@H](CCCNC(=N)N)NC(=O)[C@H](CCCNC(=N)N)NC(=O)[C@@H](N)CCCNC(=N)N)C(=O)N[C@@H](Cc1ccc2ccccc2c1)C(=O)N[C@@H](Cc1ccc2ccccc2c1)C(=O)N[C@@H](Cc1ccc2ccccc2c1)C(=O)N[C@@H](Cc1ccc2ccccc2c1)C(=O)O [IFX-006-1, NH2-Arg-Arg-Arg-Arg-NaI-NaI-NaI-NaI-OH] (H-RRRR[2Nal][2Nal][2Nal][2Nal]-OH) | 6.2 (≈ 4.33 µM) | >100 | 3.1 (≈ 2.17 µM) | 140 | 50 (≈ 34.9 µM)
5 | N=C(N)NCCC[C@H](NC(=O)[C@H](CCCNC(=N)N)NC(=O)[C@H](CCCNC(=N)N)NC(=O)[C@@H](N)CCCNC(=N)N)C(=O)N[C@@H](Cc1c[nH]c2ccccc12)C(=O)N[C@H](C(=O)N[C@H](C(=O)O)C(c1ccccc1)c1ccccc1)C(c1ccccc1)c1ccccc1 [IFX-026-1, NH2-R-R-R-R-Trp-Dip-Dip-OH] (H-RRRRW[Dip][Dip]-OH) | 6.2 (≈ 4.86 µM) | 25 (≈ 19.6 µM) | 6.2 (≈ 4.86 µM) | 430 | 12.5 (≈ 9.8 µM)
6 | N=C(N)NCCC[C@H](NC(=O)[C@H](CCCNC(=N)N)NC(=O)[C@@H](N)CCCNC(=N)N)C(=O)N[C@@H](CCCNC(=N)N)C(=O)N[C@H](C(=O)N[C@@H](Cc1c[nH]c2ccccc12)C(=O)N[C@H](C(=O)O)C(c1ccccc1)c1ccccc1)C(c1ccccc1)c1ccccc1 [IFX-027-1, NH2-R-R-R-R-Dip-Trp-Dip-OH] (H-RRRR[Dip]W[Dip]-OH) | 3.1 (≈ 2.43 µM) | 25 (≈ 19.6 µM) | 3.1 (≈ 2.43 µM) | 910 | 12.5 (≈ 9.8 µM)

More lines, now with the values ahead:

Row | MIC MRSA ATCC BAA-1556 [1] [µg/mL] | MIC P. aeruginosa ATCC 27883 [2] [µg/mL] | MIC S. aureus ATCC 29213 (S. aureus ATCC 29213) [µg/mL] | HC50 (human red blood cells) | MIC E. coli ATCC 25922 [3] [µg/mL] | Compound
7 | 6.2 (≈ 4.53 µM) | 25 (≈ 18.3 µM) | 6.2 (≈ 4.53 µM) | 670 | 12.5 (≈ 9.13 µM) | N=C(N)NCCC[C@@H]1NC(=O)[C@H](CCCNC(=N)N)NC(=O)[C@H](CCCNC(=N)N)NC(=O)[C@@H](Cc2c[nH]c3ccccc23)NC(=O)[C@@H](Cc2c[nH]c3ccccc23)NC(=O)[C@@H](Cc2c[nH]c3ccccc23)NC(=O)[C@@H](Cc2c[nH]c3ccccc23)NC(=O)[C@H](CCCNC(=N)N)NC1=O [IFX-035, c[Arg-Arg-Arg-Arg-trp-trp-trp-trp]] (cyclo(RRRR[dW][dW][dW][dW]))
8 | 32 (≈ 22.8 µM) | 32 (≈ 22.8 µM) | 16 (≈ 11.4 µM) | 520 | 32 (≈ 22.8 µM) | N=C(N)NCCC[C@@H]1NC(=O)[C@H](CCN)NC(=O)[C@@H](Cc2ccc3ccccc3c2)NC(=O)[C@@H](Cc2ccc3ccccc3c2)NC(=O)[C@H](Cc2c[nH]c3ccccc23)NC(=O)[C@H](CCN)NC(=O)[C@@H](CCCNC(=N)N)NC(=O)[C@H](CCCNC(=N)N)NC(=O)[C@@H](CCCNC(=N)N)NC1=O [IFX-057, c[Dab-Arg-arg-Arg-arg-Dab-Trp-naI-naI]] (cyclo([Dab]R[dR]R[dR][Dab]W[d2Nal][d2Nal]))
9 | 64 (≈ 49 µM) | 64 (≈ 49 µM) | 32 (≈ 24.5 µM) | 620 | 32 (≈ 24.5 µM) | N=C(N)NCCC[C@@H]1NC(=O)[C@@H](CCCNC(=N)N)NC(=O)[C@H](CCCNC(=N)N)NC(=O)[C@@H](Cc2ccc3ccccc3c2)NC(=O)[C@@H](Cc2ccc3ccccc3c2)NC(=O)[C@H](Cc2c[nH]c3ccccc23)NC(=O)[C@H](CCN)NC(=O)[C@@H](CCCNC(=N)N)NC1=O [IFX-054, c[Arg-arg-Arg-arg-Dab-Trp-naI-naI]] (cyclo([Dab]W[d2Nal][d2Nal]R[dR]R[dR]))
10 | 6.2 (≈ 4.06 µM) | 25 (≈ 16.4 µM) | 3.1 (≈ 2.03 µM) | 670 | 12.5 (≈ 8.19 µM) | N=C(N)NCCC[C@H]1NC(=O)[C@@H](CCCNC(=N)N)NC(=O)[C@@H](CCCNC(=N)N)NC(=O)[C@@H](Cc2c[nH]c3ccccc23)NC(=O)[C@@H](Cc2c[nH]c3ccccc23)NC(=O)[C@@H](Cc2c[nH]c3ccccc23)NC(=O)[C@@H](Cc2c[nH]c3ccccc23)NC(=O)[C@@H](CCCNC(=N)N)NC(=O)[C@@H](CCCNC(=N)N)NC1=O [IFX-037, c[arg-arg-arg-arg-arg-trp-trp-trp-trp]]
11 | 6.2 (≈ 5.85 µM) | 50 (≈ 47.2 µM) | 3.1 (≈ 2.92 µM) | 240 | 25 (≈ 23.6 µM) | N=C(N)NCCC[C@@H]1NC(=O)[C@H](CCCNC(=N)N)NC(=O)[C@H](Cc2ccc3ccccc3c2)NC(=O)[C@H](Cc2ccc3ccccc3c2)NC(=O)[C@H](Cc2ccc3ccccc3c2)NC(=O)[C@H](CCCNC(=N)N)NC1=O [IFX-003, c[Arg-Arg-Arg-NaI-NaI-NaI]] (cyclo([2Nal][2Nal][2Nal]RRR))
12 | 64 (≈ 45.5 µM) | 32 (≈ 22.8 µM) | 32 (≈ 22.8 µM) | 655 | 32 (≈ 22.8 µM) | N=C(N)NCCC[C@@H]1NC(=O)[C@H](CCN)NC(=O)[C@@H](Cc2ccc3ccccc3c2)NC(=O)[C@@H](Cc2ccc3ccccc3c2)NC(=O)[C@H](Cc2c[nH]c3ccccc23)NC(=O)[C@@H](CCCNC(=N)N)NC(=O)[C@H](CCCNC(=N)N)NC(=O)[C@H](CCN)NC(=O)[C@@H](CCCNC(=N)N)NC1=O [IFX-058, c[Dab-Arg-arg-Dab-Arg-arg-Trp-naI-naI]] (cyclo([Dab]R[dR][Dab]R[dR]W[d2Nal][d2Nal]))
